Data published in patent US20120058150A1, “Methods for Delivering Compositions by Electrospraying a Medical Device” (COLORADO STATE UNIVERSITY RESEARCH FOUNDATION, priority 2010, published 2012).

Experiment: gentamicin sulfate loading efficiency of E-sprayed DOPS coatings
Type: physicochemical
Conditions: 14 kV E-spray voltage compared with the other voltages (FIG. 4)

## gentamicin sulfate
  gentamicin sulfate loading efficiencies: significantly greater
